Laboratory results: US9345671B2, “Adiponectin production enhancer” (Daiichi Sankyo Company, Limited, priority 2003, dated 2016)

Assays:
secreted adiponectin = assay: Measurement of amount of secreted adiponectin in 3T3-L1 adipocyte culture supernatant by Western blotting; format: cell-based; settings: 3T3-L1 adipocytes culture supernatant, test compound 10 μM, 48 hours then 24 hours after replacing the medium; densitometer
Protocol: (§1) Preadipocyte cell line 3T3-L1 was purchased from the American Type Culture Collection (ATCC). […] Subsequently, the medium was replaced with fresh growth medium every 3 days, and the 3T3-L1 adipocytes were prepared on day 10 after the start of differentiation. Test compounds that were poorly soluble in water were used after dissolving in DMSO. Test compounds that were easily soluble in water were dissolved in sterile water followed by addition of the same amount of DMSO as that used for the aforementioned poorly water-soluble test compounds. In addition, in the case of test compounds that are poorly soluble in water, the test compound may be dissolved in ethanol and used following the addition of 0.1 N aqueous sodium hydroxide solution after shaking as necessary. After allowing the 3T3-L1 cells to adequately differentiate into adipocytes, a test compound was added to the medium to a final concentration of 10 μM followed by culturing the cells for 48 hours. The cells were additionally cultured for 24 hours after replacing the medium. […] Secretion of adiponectin into culture supernatant was detected by Western blotting. […] After washing the PVDF membrane, the adiponectin bands were detected using ECL Detection Reagents (Amersham-Pharmacia). The bands were quantified with a densitometer (Molecular Devices). The amounts of secreted adiponectin were analyzed by Western blotting.

adiponectin mRNA = assay: Measurement of adiponectin mRNA by quantitative RT-PCR in 3T3-L1 adipocytes; format: cell-based; settings: test compound 10 μM, 48 hours then 24 hours after replacing the medium, 36B4 internal control
Protocol: as §1, with “The synthesized cDNA was amplified using FastStrand DNA Master SYBR Green I (Roche Diagnostics), and the amplified PCR product” for “Secretion of adiponectin into culture supernatant”, “with LightCycler (Roche Diagnostics).” for “by Western blotting.”, “The” for “After washing the PVDF membrane, the”, “mRNA amount was measured according to quantitative RT-PCR.” for “bands were detected using ECL Detection Reagents (Amersham-Pharmacia). The bands were quantified with a densitometer (Molecular Devices). The amounts of secreted adiponectin were analyzed by Western blotting.”

C57BL/6J mice [1] = assay: Administration of pravastatin to mice in feed: blood glucose levels and adiponectin concentrations; format: in vivo; settings: 0.06% (wt/wt) in feed for 15 weeks
Protocol: The body weights of the animals were measured and blood samples were collected on the day the test started, and the animals were divided into two groups of 5 animals per cage based on their body weights and blood glucose levels. […] Blood samples were collected from the tail vein in an amount equal to one heparinized capillary tube.
The amount of feed and general behaviour were checked at least once a day.
Blood glucose levels were measured on the days when blood samples were collected.

C57BL/6J mice [2] = assay: Insulin tolerance test using pravastatin-dosed mice; format: in vivo; settings: C57BL/6J mice dosed in feed for 15 weeks, fasted 2 hours, insulin 0.5 u/kg intraperitoneally; significantly lower than non-dose group (148 mg/dl)
Protocol: A group administered with pravastatin by mixing in feed for 15 weeks and a non-dosed group of C57BL/6J mice (n=5) were fasted for 2 hours. After measuring the body weight of each animal, insulin (Humalin, Lilly) was administered intraperitoneally at 0.5 u/kg, and blood samples were collected from the tail vein immediately before the start of administration and at 15, 30, 60 and 90 minutes after the start of administration followed by measurement of blood glucose levels.

[3] = system: C57BL/6J mouse adipocytes; assay: Glucose uptake test using isolated adipocytes from pravastatin-dosed mice; format: in vivo
Protocol: (i) Epididymal adipose tissue was excised from a group administered with pravastatin for 16 weeks and a non-dosed group of C57BL/6J mice (n=5). The excised adipose tissue was handled under conditions of 37° C. at all times. The adipose tissue was cut into small pieces with a scissors, followed by the addition of medium (DMEM, 1 mM sodium pyruvate, 25 mM HEPES pH 7.4, 0.1% BSA, 100 u/ml penicillin, 0.1 mg/ml streptomycin) containing 1 mg/ml of collagenase I (Worshington), and shaking at 37° C. and 80 rpm. Following the reaction, 2.5 volumes of the aforementioned medium were added, the adipocytes were screened out by passing the cell suspension through a 260 μm mesh sieve, and again passed through a 100 μm mesh sieve to prepare an adipocyte suspension. […] Subsequently, 0.6 μCi of ^3H-labeled 2-deoxyglucose was added and allowed to react for 30 minutes. Following the reaction, the cell suspension was immediately transferred to a centrifuge tube containing silicone oil and centrifuged. After cutting out the oil layer of the upper layer containing adipocytes with a knife, it was transferred to a glass vial containing 4 ml of Hionic Fluor (Perkin-Elmer) liquid scintillation counter cocktail followed by measurement of specific radioactivity. The amount of measured radioactivity of the ^3H-2-deoxyglucose was used as an indicator of the amount of glucose taken up by the cells. (4) Results

Compound | amount of secreted adiponectin relative to the control group (secreted adiponectin) [times] | amount of adiponectin mRNA relative to the control group (adiponectin mRNA) [times] | blood glucose levels, dose group versus non-dose group (C57BL/6J mice [1]) | adiponectin concentrations in dose group relative to non-dose group (C57BL/6J mice [1]; blood) [times] | blood glucose level at 60 minutes after administration of insulin (C57BL/6J mice [2]) [mg/dL] | insulin sensitivity versus non-dose group ([3]; adipocytes isolated from C57BL/6J mice dosed for 16 weeks) | amount of glucose uptake relative to non-dose group ([3]; epididymal adipocytes isolated from C57BL/6J mice dosed for 16 weeks, insulin-induced 3H-2-deoxyglucose uptake) [times]
CC(C)c1nc(N(C)S(C)(=O)=O)nc(-c2ccc(F)cc2)c1/C=C/[C@@H](O)C[C@@H](O)CC(=O)O [rosuvastatin, (+)-(3R,5S)-7-[4-(4-fluorophenyl)-6-isopropyl-2-(N-methyl-N-methanesulfonylamino)pyrimidin-5-yl]-3,5-dihydroxy-6(E)-heptenoic acid] | 1.6 | 1.3 |  |  |  |  | 
CC[C@H](C)C(=O)O[C@H]1C[C@H](O)C=C2C=C[C@H](C)[C@H](CC[C@@H](O)C[C@@H](O)CC(=O)O)[C@H]21 [pravastatin, (+)-(3R,5R)-3,5-dihydroxy-7-[(1S,2S,6S,8S,8aR)-6-hydroxy-2-methyl-8-[(S)-2-methylbutyryloxy]-1,2,6,7,8,8a-hexahydro-1-naphthyl]heptanoic acid] | 1.7 | 1.6 | no significant differences | 1.28 | 110 | increased insulin sensitivity | 1.4
